Measured values from US5834453A, “Methods for the manufacture and use of antimicrobial sterol conjugates” (Lehigh University, priority 1997, dated 1998).
Values after ≈ are worked out from the molar mass of the structure shown. “Also recorded” adds a separate entry of the source. Read-outs that look alike come from different tables or passages of the source.

Key:
[1] = Hemolytic activity, minimal hemolytic concentration (MHC); format: cell-based, sheep; conditions: sheep, red blood cells;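 note: MCC here is the minimal hemolytic concentration (MHC)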
Procedure: Hemolytic activity of the squalamine mimics according to the present invention were also studied by incubating sheep red blood cells for 24 hours at 37° C. in saline (final concentration of 0.5%) with or without respective concentrations of the squalamine mimics. The minimal hemolytic concentration (MHC) was determined as the lowest concentration of a mimic that raised visible hemolysis.

E. faecalis (29212) = assay: MIC, micro-broth dilution; format: cell-based; conditions: Enterococcus faecalis, 35° C., 24 hours, read-out: ANTIMICROBIAL ACTIVITY (MIC)
Procedure: (§1) The antimicrobial activity of the compounds according to the present invention were compared with the results obtained for squalamine as reported in Proc. Nat. Acad. Sci. USA 90:1354 (1993), supra, the disclosure of which is incorporated in toto herein. The data reported in the following table is the minimum inhibitory concentration (MIC) required for complete inhibition of microbial growth. The MIC was determined utilizing known micro-broth dilution methods in which inocula of 10^6 /ml of the test organism were incubated in 0.5× trypticase soy broth at 35° C. for 24 hours. MIC's were also tested under various pH conditions, with calcium chloride or magnesium chloride, or with immobilized horse serum.
(§2) The numbers in parentheses contained in the table correspond to accession numbers with the American Type Culture Collection (reference strains were either obtained from the American Type Culture Collection or from the Microbiology Laboratory at Memorial Sloan-Kettering Cancer Center; Bacterial strains were maintained on Columbia 5% sheep blood agar plates, and fungi were maintained on Sabouraud Dextrose agar plates).

A. fumigatus (H29709) = assay: MIC, micro-broth dilution; format: cell-based; conditions: Aspergillus fumigatus, 35° C., 24 hours, read-out: ANTIMICROBIAL ACTIVITY (MIC)
Procedure: as §1, §2

E. faecium (T6480-9) = assay: MIC, micro-broth dilution; format: cell-based; conditions: Enterococcus faecium, 35° C., 24 hours, read-out: ANTIMICROBIAL ACTIVITY (MIC)
Procedure: as §1, §2

S. agalactiae (13813) = assay: MIC, micro-broth dilution; format: cell-based; conditions: Streptococcus agalactiae, 35° C., 24 hours, read-out: ANTIMICROBIAL ACTIVITY (MIC)
Procedure: as §1, §2

C. neoformans (90012) = assay: MIC, micro-broth dilution; format: cell-based; conditions: Cryptococcus neoformans, 24 h, read-out: ANTIMICROBIAL ACTIVITY (MIC)
Procedure: as §1, §2

S. epidermidis (12228) = assay: MIC, micro-broth dilution; format: cell-based; conditions: Staphylococcus epidermidis, 35° C., 24 hours, read-out: ANTIMICROBIAL ACTIVITY (MIC)
Procedure: as §1, §2

E. coli (25922) = assay: MIC, micro-broth dilution; format: cell-based; conditions: Escherichia coli, 35° C., 24 hours, read-out: ANTIMICROBIAL ACTIVITY (MIC)
Procedure: as §1, §2

E. cloacae (13047) = assay: MIC, micro-broth dilution; format: cell-based; conditions: Enterobacter cloacae, 35° C., 24 hours, read-out: ANTIMICROBIAL ACTIVITY (MIC)
Procedure: as §1, §2

P. vulgaris (13315) = assay: MIC, micro-broth dilution; format: cell-based; conditions: Proteus vulgaris, 35° C., 24 hours, read-out: ANTIMICROBIAL ACTIVITY (MIC)
Procedure: as §1, §2

S. pneumoniae (6305) = assay: MIC, micro-broth dilution; format: cell-based; conditions: Streptococcus pneumoniae, 35° C., 24 hours, read-out: ANTIMICROBIAL ACTIVITY (MIC)
Procedure: as §1, §2

K. pneumoniae (13883) = assay: MIC, micro-broth dilution; format: cell-based; conditions: Klebsiella pneumoniae, 24 h, read-out: ANTIMICROBIAL ACTIVITY (MIC)
Procedure: as §1, §2

P. aeruginosa (10145) = assay: MIC, micro-broth dilution; format: cell-based; conditions: Pseudomonas aeruginosa, 35° C., 24 hours, read-out: ANTIMICROBIAL ACTIVITY (MIC)
Procedure: as §1, §2

S. marcescens (13880) = assay: MIC, micro-broth dilution; format: cell-based; conditions: for MIC: Serratia marcescens, 24 h, read-out: ANTIMICROBIAL ACTIVITY (MIC)
Procedure: as §1, §2

A. fumigatus (H1120) = assay: MIC, micro-broth dilution; format: cell-based; conditions: Aspergillus fumigatus, 35° C., 24 hours, read-out: ANTIMICROBIAL ACTIVITY (MIC)
Procedure: as §1, §2

C. neoformans (M68979) = assay: MIC, micro-broth dilution; format: cell-based; conditions: Cryptococcus neoformans, 24 h, read-out: ANTIMICROBIAL ACTIVITY (MIC)
Procedure: as §1, §2

S. aureus (29213) = assay: MIC, micro-broth dilution; format: cell-based; conditions: Staphylococcus aureus, 24 h, read-out: ANTIMICROBIAL ACTIVITY (MIC)
Procedure: as §1, §2

S. aureus (25923) = assay: MIC, micro-broth dilution; format: cell-based; conditions: Staphylococcus aureus, 35° C., 24 hours, read-out: ANTIMICROBIAL ACTIVITY (MIC)
Procedure: as §1, §2

S. aureus (H20809) = assay: MIC, micro-broth dilution; format: cell-based; conditions: Staphylococcus aureus, read-out: ANTIMICROBIAL ACTIVITY (MIC)
Procedure: as §1, §2

S. pyrogenes (19615) = assay: MIC, micro-broth dilution; format: cell-based; conditions: 24 h, read-out: ANTIMICROBIAL ACTIVITY (MIC)
Procedure: as §1, §2

P. aeruginosa (2853) = assay: MIC, micro-broth dilution; format: cell-based; conditions: Pseudomonas aeruginosa, 24 h, read-out: ANTIMICROBIAL ACTIVITY (MIC)
Procedure: as §1, §2

C. albicans (90028) = assay: MIC, micro-broth dilution; format: cell-based; conditions: Candida albicans, 35° C., 24 hours, read-out: ANTIMICROBIAL ACTIVITY (MIC)
Procedure: as §1, §2

[2] = tested on: various groups of microorganisms; assay: Antimicrobial activity (MIC), all microorganisms tested; format: cell-based
Procedure: as §1, §2

SMILES | MCC at 24 h [1] | MIC (E. faecalis (29212)) | MIC (A. fumigatus (H29709)) | MIC (E. faecium (T6480-9)) | MIC (S. agalactiae (13813)) | MIC (C. neoformans (90012)) | MIC (S. epidermidis (12228)) | MIC (E. coli (25922)) | MIC (E. cloacae (13047)) | MIC (P. vulgaris (13315)) | MIC (S. pneumoniae (6305)) | MIC (K. pneumoniae (13883)) | MIC (P. aeruginosa (10145)) | MIC (S. marcescens (13880)) | MIC (A. fumigatus (H1120)) | MIC (C. neoformans (M68979)) | MIC (S. aureus (29213)) | MIC (S. aureus (25923)) | MIC (S. pyrogenes (19615)) | MIC (P. aeruginosa (2853)) | other results
C[C@H](CCC(=O)NCCCNCCCCNCCCN)[C@H]1CC[C@H]2[C@@H]3CC[C@@H]4CCCC[C@]4(C)[C@H]3CC[C@]12C [SM-19] | 6.25 µg/mL | 6.25 µg/mL (≈ 11.5 µM) | 3.13 µg/mL (≈ 5.74 µM) | 3.13 µg/mL (≈ 5.74 µM) | 3.13 µg/mL (≈ 5.74 µM) | 0.78 µg/mL (≈ 1.43 µM) | 1.56 µg/mL (≈ 2.86 µM) | 3.13 µg/mL (≈ 5.74 µM) | > 100 µg/mL | > 100 µg/mL | 0.78 µg/mL (≈ 1.43 µM) | 6.25 µg/mL (≈ 11.5 µM) | > 100 µg/mL | > 100 µg/mL | 3.13 µg/mL (≈ 5.74 µM) | 0.78 µg/mL (≈ 1.43 µM) | 3.13 µg/mL (≈ 5.74 µM) | 3.13 µg/mL (≈ 5.74 µM) | 3.13 µg/mL (≈ 5.74 µM) | 12.5 µg/mL (≈ 22.9 µM) | MIC (S. aureus (H20809); 24 h): 3.13 µg/mL (≈ 5.74 µM); MIC (C. albicans (90028)): 3.13 µg/mL (≈ 5.74 µM); antimicrobial activity (in words) [2]: highly active
C[C@H](CCC(=O)NCCNCCNCCN)[C@H]1CC[C@H]2[C@@H]3CC[C@@H]4C[C@H](O)CC[C@]4(C)[C@H]3CC[C@]12C [SM-27] | 50 µg/mL | 12.5 µg/mL (≈ 24.8 µM) | 100 µg/mL (≈ 198 µM) | 12.5 µg/mL (≈ 24.8 µM) | 3.13 µg/mL (≈ 6.2 µM) | 3.13 µg/mL (≈ 6.2 µM) | 3.13 µg/mL (≈ 6.2 µM) | 3.13 µg/mL (≈ 6.2 µM) | 25 µg/mL (≈ 49.5 µM) | 12.5 µg/mL (≈ 24.8 µM) | 3.13 µg/mL (≈ 6.2 µM) | 6.25 µg/mL (≈ 12.4 µM) | 25 µg/mL (≈ 49.5 µM) | 12.5 µg/mL (≈ 24.8 µM) | 100 µg/mL (≈ 198 µM) | 3.13 µg/mL (≈ 6.2 µM) | 6.25 µg/mL (≈ 12.4 µM) | 6.25 µg/mL (≈ 12.4 µM) | 1.56 µg/mL (≈ 3.09 µM) | 12.5 µg/mL (≈ 24.8 µM) | activity against S. marcescens (S. marcescens (13880); in words): found even against S. marcescens; also recorded: effective against S. marcescens; MIC (S. aureus (H20809); 24 h): 6.25 µg/mL (≈ 12.4 µM); MIC (C. albicans (90028)): 25 µg/mL (≈ 49.5 µM)
C[C@H](CCC(=O)NCCCNCCCCNCCCN)[C@H]1CC[C@H]2[C@@H]3C[C@H](O)[C@@H]4C[C@H](O)CC[C@]4(C)[C@H]3CC[C@]12C [SM-28] | > 100 µg/mL | 50 µg/mL (≈ 86.7 µM) | 25 µg/mL (≈ 43.3 µM) | 50 µg/mL (≈ 86.7 µM) | 12.5 µg/mL (≈ 21.7 µM) | 3.13 µg/mL (≈ 5.43 µM) | 3.13 µg/mL (≈ 5.43 µM) | 50 µg/mL (≈ 86.7 µM) | > 100 µg/mL | 50 µg/mL (≈ 86.7 µM) | 50 µg/mL (≈ 86.7 µM) | > 100 µg/mL | 25 µg/mL (≈ 43.3 µM) | > 100 µg/mL | 25 µg/mL (≈ 43.3 µM) | 3.13 µg/mL (≈ 5.43 µM) | 6.25 µg/mL (≈ 10.8 µM) | 6.25 µg/mL (≈ 10.8 µM) | 1.56 µg/mL (≈ 2.7 µM) | 25 µg/mL (≈ 43.3 µM) | MIC (S. aureus (H20809); 24 h): 6.25 µg/mL (≈ 10.8 µM); MIC (C. albicans (90028)): 6.25 µg/mL (≈ 10.8 µM); antimicrobial activity (in words) [2]: lesser activity
C[C@H](CCC(=O)NCCNCCNCCN)[C@H]1CC[C@H]2[C@@H]3C[C@H](O)[C@@H]4C[C@H](O)CC[C@]4(C)[C@H]3CC[C@]12C [SM-32] | > 100 µg/mL | 100 µg/mL (≈ 192 µM) | 50 µg/mL (≈ 96 µM) | 100 µg/mL (≈ 192 µM) | 25 µg/mL (≈ 48 µM) | 25 µg/mL (≈ 48 µM) | 25 µg/mL (≈ 48 µM) | 25 µg/mL (≈ 48 µM) | > 100 µg/mL | 50 µg/mL (≈ 96 µM) | 25 µg/mL (≈ 48 µM) | 50 µg/mL (≈ 96 µM) | 50 µg/mL (≈ 96 µM) | > 100 µg/mL | 50 µg/mL (≈ 96 µM) | 25 µg/mL (≈ 48 µM) | 25 µg/mL (≈ 48 µM) | 25 µg/mL (≈ 48 µM) | 12.5 µg/mL (≈ 24 µM) | 25 µg/mL (≈ 48 µM) | MIC (S. aureus (H20809); 24 h): 25 µg/mL (≈ 48 µM); MIC (C. albicans (90028)): 25 µg/mL (≈ 48 µM)
C[C@H](CCC(=O)NCCCNCCCCNCCCN)[C@H]1CC[C@H]2[C@@H]3[C@H](OS(=O)(=O)O)C[C@@H]4C[C@H](OS(=O)(=O)O)CC[C@]4(C)[C@H]3CC[C@]12C [SM-35] | 6.25 µg/mL | 6.25 µg/mL (≈ 8.48 µM) | 25 µg/mL (≈ 33.9 µM) | 6.25 µg/mL (≈ 8.48 µM) | 6.25 µg/mL (≈ 8.48 µM) | 12.5 µg/mL (≈ 17 µM) | 3.13 µg/mL (≈ 4.25 µM) | 6.25 µg/mL (≈ 8.48 µM) | 12.5 µg/mL (≈ 17 µM) | 25 µg/mL (≈ 33.9 µM) | 3.13 µg/mL (≈ 4.25 µM) | 12.5 µg/mL (≈ 17 µM) | 25 µg/mL (≈ 33.9 µM) | > 100 µg/mL | 25 µg/mL (≈ 33.9 µM) | 12.5 µg/mL (≈ 17 µM) | 6.25 µg/mL (≈ 8.48 µM) | 6.25 µg/mL (≈ 8.48 µM) | 3.13 µg/mL (≈ 4.25 µM) | 12.5 µg/mL (≈ 17 µM) | MIC (S. aureus (H20809); S. aureus (H20809), 35° C., 24 hours): 8.25 µg/mL (≈ 11.2 µM); MIC (C. albicans (90028)): 25 µg/mL (≈ 33.9 µM)
